Three compounds from ChEMBL document CHEMBL1138175, “Novel 1alpha,25-dihydroxyvitamin D3 analogues with the side chain at C12” (J Med Chem, 2006) can be followed below.

Assay [1] deals with T1, Vitamin D3 receptor (Homo sapiens) (UniProt P11473).
T1 sequence (whole entry): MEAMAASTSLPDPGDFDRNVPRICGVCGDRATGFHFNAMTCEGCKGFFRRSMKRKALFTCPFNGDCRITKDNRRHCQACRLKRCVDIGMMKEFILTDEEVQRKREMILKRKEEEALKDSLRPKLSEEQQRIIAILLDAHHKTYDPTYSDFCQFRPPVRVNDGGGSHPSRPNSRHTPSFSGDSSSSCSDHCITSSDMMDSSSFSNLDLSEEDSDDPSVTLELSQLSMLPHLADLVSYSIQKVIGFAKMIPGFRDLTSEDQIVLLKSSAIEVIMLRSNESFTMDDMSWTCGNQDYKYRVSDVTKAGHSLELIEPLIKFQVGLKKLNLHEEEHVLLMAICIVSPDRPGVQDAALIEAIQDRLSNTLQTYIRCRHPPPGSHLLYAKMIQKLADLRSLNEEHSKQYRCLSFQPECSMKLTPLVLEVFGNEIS
Nature of the assay: Effect on Gal4 DBD-hVDRdelta LBD construct transactivation in COS7 cells at 10(-5) M. The conditions noted are these: COS-7. It is filed as functional, cell-based.

In assay [2] the target is T1, Vitamin D3 receptor (Homo sapiens). Nature of the assay: Effect on Gal4 DBD-hVDRdelta LBD construct transactivation in COS7 cells at 10(-7) M. The conditions noted are these: COS-7. The class given is functional, cell-based.

Consider `C=C1/C(=C\C=C2/CC[C@@H](CCCCCCC(C)(C)O)[C@]3(C)CCC[C@@H]23)C[C@@H](O)C[C@@H]1O`, for which the results for the Activity in assay [1] and in assay [2] were 100% and 20%, respectively.

In the case of `C=C1/C(=C\C=C2/CC[C@@H](CCCCCC(C)(C)O)[C@]3(C)CCC[C@@H]23)C[C@@H](O)C[C@@H]1O`, the Activity in assay [2] amounted to 8%.

`C=C1/C(=C\C=C2/CC[C@@H](CCCCCCCC(C)(C)O)[C@]3(C)CCC[C@@H]23)C[C@@H](O)C[C@@H]1O`: the Activity in assay [2] was 6%.
